Experimental data as given in patent US7253295B2, “Chloride channel opener” (Sucampo AG, priority 2001, dated 2007).
Several values for one entry are separate records, joined by “and”; a condition that tells them apart may be missing. Equal entries are not always repeated.

Tests used:
[1] = biological target: T1, recombinant hClC-2 chloride channel (Homo sapiens, UniProt P51788); assay: Whole cell patch clamp, HEK cells transfected with hClC-2 (Test Example 1); assay type: cell-based; settings: for Effect on Cl currents in HEK cells transfected with hClC-2 (in words): 1 μM; for Cl channel activity: 1 μM in 1% DMSO, HEK cells transfected with hClC-2
T1 construct: His; T7; expressed in transfected cells; host or cells: HEK-293 (ATCC), pcDNA3.1, G-418 selected
T1 sequence (P51788 1-898): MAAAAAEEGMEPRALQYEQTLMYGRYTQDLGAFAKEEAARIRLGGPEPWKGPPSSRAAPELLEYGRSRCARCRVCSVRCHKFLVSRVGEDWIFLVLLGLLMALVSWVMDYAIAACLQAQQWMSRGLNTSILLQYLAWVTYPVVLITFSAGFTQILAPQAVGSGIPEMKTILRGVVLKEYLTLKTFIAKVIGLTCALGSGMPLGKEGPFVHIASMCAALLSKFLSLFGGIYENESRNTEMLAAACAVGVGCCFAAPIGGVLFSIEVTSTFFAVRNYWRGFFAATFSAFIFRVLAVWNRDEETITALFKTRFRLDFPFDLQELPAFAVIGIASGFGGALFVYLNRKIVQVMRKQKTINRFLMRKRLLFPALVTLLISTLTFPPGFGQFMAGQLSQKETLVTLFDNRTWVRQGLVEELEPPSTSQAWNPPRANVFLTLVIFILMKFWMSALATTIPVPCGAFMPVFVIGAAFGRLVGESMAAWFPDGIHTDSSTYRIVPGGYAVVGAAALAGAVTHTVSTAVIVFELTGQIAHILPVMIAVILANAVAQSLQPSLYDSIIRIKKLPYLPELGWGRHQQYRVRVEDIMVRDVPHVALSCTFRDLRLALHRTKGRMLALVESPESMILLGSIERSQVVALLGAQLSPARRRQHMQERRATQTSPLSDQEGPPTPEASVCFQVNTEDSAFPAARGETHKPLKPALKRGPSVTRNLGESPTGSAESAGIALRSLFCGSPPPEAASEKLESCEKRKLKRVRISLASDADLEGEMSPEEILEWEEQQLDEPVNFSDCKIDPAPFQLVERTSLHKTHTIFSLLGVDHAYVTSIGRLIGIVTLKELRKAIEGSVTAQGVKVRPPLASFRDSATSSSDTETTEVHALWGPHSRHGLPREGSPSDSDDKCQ
Description: Whole cell patch clamp method was used to assess the effect of compound 1 (13,14-dihydro-15-keto-16,16-difluoro-PGE1) and compound 2 (13,14-dihydro-15-keto-16,16-difluoro-18 (S)-methyl-PGE1) on recombinant hClC-2 chloride channel. In this example, effects of the respective compounds on Human Epithelial Kidney (HEK) cells transfected with human ClC-2 (hClC-2) were examined, and the results were compared with those on non-transfected HEK cells.
ClC-2 transfected human epithelial kidney (HEK) cells were prepared and used. HEK-293 cells obtained from American Type Culture Collection (ATCC; Manassas, Va.) were transfected with His- and T7-tagged human ClC-2 cDNA in the mammalian expression vector pcDNA3.1 (GIBCO/Invitrogen) using Lipofectamine (GIBCO/Invitrogen) for 5 h at 37° C. in serum-free medium. Cells were then resuspended in the serum-containing medium and cultured in the presence of 300 μg/ml G-418 (GIBCO/Invitrogen). The surviving cells were then expanded, tested to confirm expression of Cl- current and ClC-2 mRNA, and the cells expressing ClC-2 mRNA were frozen to store. Upon studies, the stored cells were thawed and maintained at 37° C. in 5%/95% CO2/O2 in MEM (GIBCO/Invitrogen) supplemented with 5% inactivated horse serum, 0.1 mM nonessential amino acids, 2 mM L-glutamine, 1 mM sodium pyruvate, 100 units/ml penicillin, and 100 μg/ml streptomycin sulfate.
In the whole cell patch clamp measurements, currents were elicited by voltage clamp pulses (1500 ms duration) between +40 mV and −140 mV, in 20 mV increments, from the beginning holding potential of −30 mV. Currents were measured 50-100 ms after start of the pulse. The external solution was normal Tyrode solution containing 135 mM NaCl, 1.8 mM CaCl2, 1 mM MgCl2, 5.4 mM KCl, 10 mM glucose, and 10 mM HEPES (pH 7.35). The pipette solution was 130 mM CsCl, 1 mM MgCl2, 5 mM EGTA, and 10 mM HEPES (pH 7.35); also present in the pipette was 1 mM ATP—Mg^2+ (pH 7.4).
Pipettes were prepared from borosilicate glass and pulled by a two stage Narashige puller to give 1-1.5 MΩ resistance. Data were acquired with Axopatch CV-4 headstage with Digidata 1200 digitizer and Axopatch 1D amplifier. Data were analyzed using pClamp 6.04 (Axon Instruments, Foster City, Calif.), Lotus 123 (IBM) and Origin (Microcal) software.
Compound 1 and compound 2 were used at a final concentration of 1 μM in 1% DMSO.

16HBE14o- cells = assay: Short-circuit current in 16HBE14o- cells (Test Example 2); assay type: cell-based, Human; settings: 1 μM, 1% DMSO
Method: 16HBE14o- cells, a Human airway cell line derived from a healthy individual, which contain ClC-2 and the Cystic Fibrosis Transmembrane Regulator, Cl channel (CFTR); and CFBE41o- cells, a Human airway cell line derived from cystic fibrosis patients, which contain functional form of ClC-2 and defective form of CFTR (ΔF508 CFTR) were used. Both cells were cultured in MEM supplemented with 10% FBS (Hyclone), […] 1-glutamine and penicillin/streptomycin in flasks coated with fibronectin/collagen/BSA. When desired, the cells were plated on 0.3 cm^2 collagen-coated permeable filters (Biocoat). After 24 hrs, the apical medium was removed so that the cells were grown in air-water interface. While they were grown in air-water interface, the basolateral side of the cells was fed with the medium and the medium was changed every other day. The cells were allowed to grow to confluence.
Short-circuit current measurements were used to evaluate Cl transport in polarized, confluent cultures of the cells grown in air-water interface. A plexiglass chamber for short-circuit current measurements in confluent cell monolayers grown on the 0.3 cm^2 permeable support filters was used (World Precision Instruments, Sarasota, Fla.). Electrical measurements were made with a 7402C voltage clamp device (Bioengineering Department, Iowa University). The temperature was held constant at 37° C. by circulating heated water through the water jacket of the chamber. The output of the amplifier was plotted on an analog chart recorder. Changes in short-circuit current (Δlsc) after addition of test compounds were normalized to filter area (0.3 cm^2) and reported as ΔIsc/cm^2.
Short-circuit current measurements in the 16HBE14o- and CFBE41o- cells were carried out as described by Lofling et al. (Am J Physiol, 277(4 Pt 1):L700-8, 1999, the cited reference is herein incorporated by reference). […] Both solutions were bubbled with CO2/O2 (5%/95%), which also served to help mix the solutions. In all cases, the basolateral membrane was permeabilized with 200 μg/ml nystatin. […]

| Structure (SMILES) | Effect on Cl currents in HEK cells transfected with hClC-2 (in words) [1] | Cl channel activity [1] [nS/pF] | Short-Circuit Current (change) (16HBE14o- cells) | Short-Circuit Current (change) (16HBE14o- cells; listed as compound 2) [μA/cm^2] |
| --- | --- | --- | --- | --- |
| CCCCC(F)(F)[C@@]1(O)CC[C@H]2[C@@H](CC(=O)[C@@H]2CCCCCCC(=O)O)O1 [Compound 1, (−)-7-[(2R,4aR,5R,7aR)-2-(1,1-difluoropentyl)-2-hydroxy-6-oxoperhydrocyclopenta[b]pyran-5-yl]heptanoic acid] | activated | 1.820 ± 0.114 | 9.56±0.095 μA/cm^2 and 9.56 ± 0.95 μA/cm^2 |  |
| CC[C@H](C)CC(F)(F)C(=O)CC[C@H]1[C@H](O)CC(=O)[C@@H]1CCCCCCC(=O)O [Compound 2, 13,14-dihydro-15-keto-16,16-difluoro-18(S)-Methyl-PGE1] | activated | 0.558 ± 0.100 | 11.6±1.3 μA/cm^2 | 11.6 ± 1.3 |
